Like-named read-outs stand apart in the source and are kept apart here.

Consider two molecules from PMC6273429, “Pharmacokinetics of Tyrosol Metabolites in Rats” (Molecules, 2016).

Data set [1] in a line: Pharmacokinetics of tyrosol metabolites in rat plasma after single oral dose of tyrosol (HPLC). It is filed as in vivo, Sprague-Dawley rats. The following applies: for Cmax / Tmax / half-life / AUC(0-t): male, Sprague-Dawley; for AUC(0-t): n = 3, read-out: AUC (0-8h). The procedure:
To understand the time-dependent changes in the concentration of tyrosol metabolites, the level of metabolites in plasma samples was measured by HPLC at different time points (15, 30, 60, 120, and 240 min) after tyrosol administration. […] The inter- and intra-day precision and accuracy were determined by replicate analysis of the samples at two concentrations of each metabolite: 0.1 and 2 mg/mL tyrosol-4-sulfate. The stability of the metabolites was determined at room temperature over 24 h.
(§1) Male Sprague-Dawley rats with average weights of 250 g were purchased from Orient Bio Inc. (Seoul, Korea) and acclimatized to laboratory conditions comprising a 12:12 h light-dark cycle, temperature of 24 °C, and humidity of 55% for one week. Animals were fed AIN-93G diet and provided water ad libitum during acclimation. On the dosing day, the rats were gavaged with tyrosol (100 or 200 mg/kg) as a suspension in polyethylene glycol. After the oral administration of a single dose of tyrosol to rats, blood samples were collected from the eye of the rats at different time points after dosing (0.25, 0.5, 1, 2, 4, 8, and 16 h). Urine samples were collected just before administration of tyrosol and during 0–1, 1–2, 2–4, 4–8, and 8–24 h after dosing. Liver, lung, heart, spleen, kidney, and epididymal adipose tissues were excised as quickly as possible and stored frozen at −80 °C until use. Animal studies were conducted in accordance with our institutional and national guidelines, and all experimental procedures were approved by the Korea Food Research Institute Animal Care and Use Committee (KFRI-IACUC, #2015-0016).
To 300 µL of serum, 700 µL of methanol was added, followed by vortex mixing for 5 min. After centrifugation at 13,000 rpm for 15 min, the supernatant was collected and injected into the HPLC or LC-MS system.
(§2) HPLC analyses were performed on a Jasco high-performance liquid chromatography (HPLC) system (Jasco Corporation, Tokyo, Japan) equipped with a Jasco UV-2089 plus quaternary gradient pump, Jasco AS-2057 plus intelligent sample injector, Jasco UV-2075 UV/Vis detector, and Borwin chromatography software version 1.5. Separation was achieved using an XTerra RP18 column (4.6 × 250 mm, 5 µM, Waters) and a guard column. Elution was performed at a flow rate of 1.0 mL/min at 30 °C. The solvents for eluent were 1% (v/v) phosphoric acid (solvent A) and acetonitrile (solvent B). The solvent gradient changed according to the following conditions: 100% A to 95% A over 10 min, to 85% A over 10 min, to 70% A over 10 min, to 65% A over 5 min, to 90% A over 5 min, and to 100% A over 5 min, followed by 5 min of maintenance. The UV detector was set at a wavelength of 280 nm.
(§3) A non-compartmental pharmacokinetics analysis for each tyrosol metabolite was performed using PK solution software version 2.0 (Summit Research Services, Montrose, CO, USA). Cmax, Tmax, and T1/2 were estimated from the plasma concentration-time curve. The area under the curve (AUC) for the plasma concentration over time was calculated using the trapezoidal rule.

Data set [2] can be described thus: Pharmacokinetics of tyrosol metabolites in rat urine after single oral dose of tyrosol (HPLC). It is filed as in vivo, Sprague-Dawley rats. Particulars: for Tmax / half-life: male, Sprague-Dawley; for Tmax: rat, urine, po. The procedure: Urine samples were collected at 0–1, 1–2, 2–4, 4–8, and 8–24 h after administration of tyrosol.
as §1, §2, §3

Data set [3] can be described thus: Tissue distribution of tyrosol-derived metabolites after oral administration of tyrosol. The data set is classed as in vivo, Sprague-Dawley rats. Here is the method: To study the tissue distribution of tyrosol metabolites, organs were collected at different time points following oral administration of tyrosol. T4S and M2 were detected in each tissue within 1 h after tyrosol administration (Figure 5A,B). […] These findings indicate that the metabolites are mainly excreted by the kidneys through the liver. Specifically, we propose that the rapid uptake of tyrosol is followed by its sulfation in the liver.
Figure 5 Tissue distribution of tyrosol-4-sulfate (A) and M2 (B). Tissue samples (heart, kidney, spleen, lung, liver, epididymal adipose tissue) were collected at different time intervals post-dosing (0, 0.5, 1, 2, 4, 8, and 16 h) and the concentration of tyrosol-4-sulfate and M2 was measured. Each point represents mean ± SD (n = 3).
as §1
Each tissue was thawed, rinsed with ice-cold saline, blotted dry, weighed, and homogenized (1:1, w/v) in water using homogenizer (MP Fastprep instrument, MP Biomedical, Solon, OH, USA). The homogenates (300 µL) were transferred into clean tubes, methanol (700 µL) was added, and the tubes were vortex-mixed for 5 min. The supernatant was collected after centrifugation at 13,000 rpm for 15 min. The supernatant was evaporated to dryness at room temperature under a stream of nitrogen gas. The residue was resuspended in methanol (100 µL).
as §2

In data set [4] the test system is human hepatoma HepG2 cells. Further details: method as in PMID 16366672. Particulars: cited from earlier work.

For `O=S(=O)(O)Oc1ccc(CCO)cc1` [T4S, tyrosol-4-sulfate], in data set [1], the “time of uptake after oral administration of tyrosol” value is listed as at most 1 h. Besides, the results for the maximum concentration (Cmax) in data set [1] (tyrosol oral 100 mg/kg b.w.) and in data set [1] (tyrosol oral 200 mg/kg b.w.) were 7900 ng/mL and 12100 ng/mL, respectively. For the same molecule, the Tmax in data set [1] (tyrosol oral 100 mg/kg b.w.) was 0.178 h; in data set [1] (tyrosol oral 200 mg/kg b.w.) it was 0.177 h; in data set [2] (100 mg/kg, tyrosol oral 100 mg/kg b.w., read-out: Tmax), 2 h; in data set [2] (200 mg/kg, tyrosol oral 200 mg/kg b.w., read-out: Tmax), 2.9 h; in data set [2] (200 mg/kg, tyrosol oral 100 and 200 mg/kg, read-out: Tmax in urine (range over doses)), 2 to 2.9 h. Also, the half-life in data set [1] (tyrosol oral 100 mg/kg b.w.) was 0.23 h; in data set [1] (tyrosol oral 200 mg/kg b.w.), 0.202 h; in data set [2] (tyrosol oral 100 mg/kg b.w.) it was 1.2 h; in data set [2] (tyrosol oral 200 mg/kg b.w.) it was 1.2 h. In addition, the AUC(0-t) stood at 2500 ng·h/mL in data set [1] (tyrosol oral 100 mg/kg b.w.) and 6600 ng·h/mL in data set [1] (tyrosol oral 200 mg/kg b.w.). In addition, in data set [2] (after oral tyrosol), the “time by which eliminated in urine” value was at most 12 h. In addition, in data set [3] (rat tissues after oral tyrosol), the “time to detection in each tissue” value is on record as at most 1 h. Moreover, the “detection in epididymal fat and the lungs” value in data set [3] (rat, after oral tyrosol) is “not detected”. In data set [3] (rat, after oral tyrosol), the “time of elimination from organs and tissues” value is listed as at most 4 h. The “tissues of greatest deposition / highest concentration by tissue weight” value in data set [3] (rat, after oral tyrosol) is “liver, followed by the kidney and spleen”; in data set [3] (rat, after oral tyrosol, listed as tyrosol-4-sulfate) it was “liver and the kidney”.
As to `OCCc1ccc(O)cc1` [Tyrosol], in data set [4], the “detection of sulfated metabolites” value is “no detection” and the “metabolism to glucuronide conjugates” value is “poorly metabolized”.

What is called Cmax is the highest concentration seen after dosing. For orientation: Tmax means the time at which the peak concentration occurs. As usually defined, the half-life is how long it takes for the measured level to halve.
